Measured values from patent publication US10793601B2, “Therapeutic spalt-like transcription factor 4 (SALL4) peptide” (National University of Singapore, priority 2016, dated 2020).
Ends that are not written are not given here.

What was measured:
SNU387 cells = test: Cell viability assay in SNU387 cells (no SALL4 expression); format: cell-based; conditions: cell viability after 72 hr
Procedure: FIGS. 6A-6B. Therapeutic window of PEN-FFW in HCC cell lines. FIG. 6A: Peptides were added to HCC cell line SNU398 with high expression of SALL4. FIG. 6B: HCC cell line SNU387 with no expression of SALL4, and cell viability was measured after 72 hr of incubation.
The efficacies of the FFW, WT and MUT peptides were compared at the cellular level and in mice. A penetratin sequence (PEN) was attached to the N-terminus of each peptide to facilitate cell penetration in vitro. […] The therapeutic window of PEN-FFW in SALL4 expressing HCC cells was accessed in SNU387 cells, a HCC line with undetectable level of SALL4, as well as SNU398. The MUT and WT SALL4 peptides were also included in this assay for comparison (FIGS. 6 A & B).

PTEN = PTEN mRNA in resected SNU398 tumors by real-time PCR; format: in vivo, NOD/SCID/gamma mice; conditions: harvested SNU398 tumors
Procedure: FIGS. 7A-7E. Anti-tumor activity of the candidate therapeutic peptide FFW. FIG. 7A: 7.2×10^5 SNU398 cells were inoculated subcutaneously into the right flank of NOD/SCID/gamma mice (NSG mice). Tumors were allowed to grow for one week before peptide treatments were administered every alternate day for a total of five injections. FIG. 7B: Tumor growth was documented by plotting tumor volume against time. […] FIG. 7C: Relative size of tumors resected on day 20. FIG. 7D: tumor weight was determined (n=5). PEN-FFW treated mice had the smallest tumors (μ=88.34 mg) compared to PEN (μ=1550.78 mg), PEN-MUT (μ=1273.46 mg) and PEN-WT (μ=563.46 mg). FIG. 7E: Total RNA was isolated from the resected tumors and expression of PTEN was measured using real-time PCR.
Tumors resected from mice were homogenized in Trizol. Total RNA was extracted and treated with RNase-free DNase (Qiagen). Reverse transcription was carried out using Superscript III Reverse Transcriptase. Quantitative PCR was performed using GoTaq qPCR Master Mix (Promega). Amplification was done with a Corbett Rotor Gene 6000 (Qiagen). Each sample was assayed in triplicate.

in vitro = conditions: human, plasma, pH 7.4
Procedure: PEN-FFW was incubated with human plasma (pH7.4) at 37° C. over a 24 hour period (5 timepoints). Incubations were performed at a concentration of 1 μM (final DMSO concentration 2.5%). Reactions were terminated at 0, 5, 10, 15, 30 min, or 0, 1, 2, 4 and 24 hour, by addition of 2 volumes of methanol containing 1% Formic acid. The samples were centrifuged (2500 rpm, 45 min, 4° C.) and the supernatants diluted with 2 volumes of 0.2% Formic acid (aq) (containing Metoprolol (internal standard)). […] The percentage of parent peptide remaining at each time point relative to the 0 min sample was calculated from LC-MS/MS peak area ratios (compound peak area/internal standard peak area).

SNU398 = test: RNA-seq transcriptome analysis of treated SNU398; format: cell-based; conditions: SNU398 treated 8 hrs
Procedure: SNU398 were treated PEN, PEN-MUT, PEN-WT & PEN-FFW for 8 hrs and paired-end RNA-seq was performed for the treated samples. RNA-seq reads of each sample were mapped to hg19 using the STAR aligner. Normalization between the samples was based on the proportionality of the numbers of the mapped reads. The expression fold change of a transcript was obtained using linear regression of the reads between the two samples cross all exons. Differential expression between two samples was selected by using the fold change cut off of 2. Hierarchical clustering was performed based on average linkage to generate the clustering tree as well as heat maps. For identification of enriched gene sets or pathways, Gene Set Enrichment Analysis (GSEA) was performed based on the normalized data and using the GSEA tool (broad.mit.edu/gsea/) with msigdb.v5.0.

Sequence: RQIKIWFQNRRMKWKKRRKFAKFQWI [PEN-FFW]
- specificity SNU398 (SALL4 high) versus SNU387 (no SALL4) (SNU387 cells): specificity of PEN-FFW in targeting SALL4-high HCC cells (SNU398)
- increase in PTEN expression in tumors compared to PEN control mice (PTEN): 9 fold
- remaining at 0.5 h, 1 μM (in vitro): > 90%
- remaining at 4 h, 1 μM (in vitro): > 50%
- remaining at 24 h, 1 μM (in vitro): ~20%
- share of DEGs upregulated (SNU398): more than 99%
